biological target: 5-hydroxytryptamine receptor 2A (Rattus norvegicus, UniProt P14842); assay: Radioligand Labeled Binding Assay
Method: (§1) IC50 values for each test compound were determined from nonlinear regression analysis of data collected from ligand binding experiments. The inhibition constant (Ki) was calculated from IC50 value by the Cheng and Prusoff equation.

Sequence of 5-hydroxytryptamine receptor 2A (P14842 whole entry): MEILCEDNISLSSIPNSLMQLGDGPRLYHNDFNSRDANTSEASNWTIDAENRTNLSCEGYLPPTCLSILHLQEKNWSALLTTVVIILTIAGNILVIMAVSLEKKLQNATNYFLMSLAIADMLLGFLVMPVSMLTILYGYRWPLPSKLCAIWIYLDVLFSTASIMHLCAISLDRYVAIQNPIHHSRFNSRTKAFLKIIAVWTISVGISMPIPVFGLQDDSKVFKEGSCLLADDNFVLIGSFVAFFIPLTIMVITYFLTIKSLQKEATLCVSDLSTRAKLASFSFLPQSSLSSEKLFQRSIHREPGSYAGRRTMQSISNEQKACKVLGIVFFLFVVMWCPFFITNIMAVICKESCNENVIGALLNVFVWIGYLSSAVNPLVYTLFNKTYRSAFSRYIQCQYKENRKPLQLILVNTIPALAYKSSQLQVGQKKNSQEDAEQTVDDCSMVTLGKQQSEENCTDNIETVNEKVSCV

Row | Ki | Structure (SMILES)
1 | 1260 nM | COc1ccccc1N1CCN(CCCCCC(=O)NC2CCCc3ccccc32)CC1 (configuration not stated)

biological target: T1, 5-hydroxytryptamine receptor 1A (Homo sapiens, UniProt P08908); assay: Radioligand Labeled Binding Assay
T1 sequence (P08908 whole entry): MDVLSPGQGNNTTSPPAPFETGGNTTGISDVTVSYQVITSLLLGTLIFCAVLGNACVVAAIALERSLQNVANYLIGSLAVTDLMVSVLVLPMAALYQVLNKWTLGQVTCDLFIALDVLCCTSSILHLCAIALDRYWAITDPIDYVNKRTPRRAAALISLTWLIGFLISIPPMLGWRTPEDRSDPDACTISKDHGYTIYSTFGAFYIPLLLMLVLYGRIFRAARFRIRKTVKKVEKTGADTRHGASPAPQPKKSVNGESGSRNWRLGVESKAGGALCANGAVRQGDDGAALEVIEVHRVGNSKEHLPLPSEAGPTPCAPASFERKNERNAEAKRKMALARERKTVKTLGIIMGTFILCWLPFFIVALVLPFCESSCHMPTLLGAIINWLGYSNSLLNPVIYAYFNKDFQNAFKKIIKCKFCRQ
Method: as §1

Row | Ki | Structure (SMILES)
2 | 52.7 nM | CSc1ccccc1N1CCN(CCCCCC(=O)NC2CCCc3ccccc32)CC1 (configuration not stated)
3 | 8.6 nM | COc1ccccc1N1CCN(CCCCCC(=O)NC2CCCc3ccccc32)CC1 (configuration not stated)
4 | 279 nM | Cc1ccccc1N1CCN(CCCCCC(=O)NC2CCCc3ccccc32)CC1 (configuration not stated)
5 | 3.85 nM | CC(=O)c1ccccc1N1CCN(CCCCCC(=O)NC2CCCc3ccccc32)CC1 (configuration not stated)
6 | 24 nM | O=C(CCCCCN1CCN(c2ccccc2O)CC1)NC1CCCc2ccccc21 (configuration not stated)
7 | 128 nM | O=C(CCCCCN1CCN(c2ccccc2)CC1)NC1CCCc2ccccc21 (configuration not stated)
8 | 96 nM | O=C(CCCCCN1CCN(c2ccccc2Cl)CC1)NC1CCCc2ccccc21 (configuration not stated)
9 | 3120 nM | CS(=O)(=O)c1ccccc1N1CCN(CCCCCC(=O)NC2CCCc3ccccc32)CC1 (configuration not stated)
10 | 494 nM | NC(=O)c1ccccc1N1CCN(CCCCCC(=O)NC2CCCc3ccccc32)CC1 (configuration not stated) [2-{4-[5-(1,2,3,4-tetrahydronaphthalen-1-ylcarbamoyl)pentyl]piperazin-1-yl}benzamide]
11 | 16.6 nM | N#Cc1ccccc1N1CCN(CCCCCC(=O)NC2CCCc3ccccc32)CC1 (configuration not stated) [6-[4-(2-cyanophenyl)piperazin-1-yl]-N-(1,2,3,4-tetrahydronaphthalen-1-yl)hexanamide]
12 | 183 nM | O=C(CCCCCN1CCN(c2ccccc2[N+](=O)[O-])CC1)NC1CCCc2ccccc21 (configuration not stated) [6-[4-(2-nitrophenyl)piperazin-1-yl]-N-(1,2,3,4-tetrahydronaphthalen-1-yl)hexanamide]
